Measurements published in patent publication US20220409631A1, “METHODS OF INDUCING OR ENHANCING FARNESOID X RECEPTOR (FXR)-MEDIATED TRANSCRIPTIONAL RESPONSE” (YALE UNIVERSITY, priority 2019, published 2022).
Entries after “also recorded” stand apart in the source; their conditions may differ. Read-outs that look alike come from different tables or passages of the source.

What was measured:
Format in all cases: cell-based
FXR = biological target: T1, FXR (Homo sapiens, UniProt Q96RI1); experiment: FXR luciferase reporter assay in HepG2 reporter cells; details: for EC50: no ligand added, read-out: FXR (stimulation EC50); for induction of FXR activity / FXR mediated transcriptional response: HepG2 FXR-luciferase reporter cells
T1 construct: HepG2 cells were stably transfected with either FXR reporter DNA; endogenous in cells; host or cells: HepG2 cells stably transfected with a 3x FXR response element PGL4.2 luciferase reporter
T1 sequence (Q96RI1 1-486): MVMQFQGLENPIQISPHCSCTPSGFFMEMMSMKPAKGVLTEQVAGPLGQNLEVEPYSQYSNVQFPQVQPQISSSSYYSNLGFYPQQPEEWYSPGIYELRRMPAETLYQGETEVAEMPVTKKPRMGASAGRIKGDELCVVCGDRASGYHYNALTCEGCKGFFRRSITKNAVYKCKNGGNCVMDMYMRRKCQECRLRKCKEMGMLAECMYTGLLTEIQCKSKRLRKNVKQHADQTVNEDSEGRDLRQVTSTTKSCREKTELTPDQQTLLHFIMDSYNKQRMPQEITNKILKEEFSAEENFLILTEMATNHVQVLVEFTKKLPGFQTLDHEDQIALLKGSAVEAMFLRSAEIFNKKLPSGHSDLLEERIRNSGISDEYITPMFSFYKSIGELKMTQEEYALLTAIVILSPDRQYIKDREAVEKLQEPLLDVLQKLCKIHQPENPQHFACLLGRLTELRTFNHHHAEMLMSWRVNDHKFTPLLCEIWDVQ
Method: FXR luciferase reporter cells—FXR luciferase reporter cells—HepG2 cancer cells were used in the screening study. HepG2 cells were stably transfected with either FXR reporter DNA in which 3 repeated response element ([…])(SEQ ID NO:2) was inserted in-PGL4.2 luciferase reporter plasmid or LXR reporter DNA in which 3 repeated response element ([…])(SEQ ID NO:3) was inserted in PGL4.2 luciferase reporter plasmid. Reporter cells were selected by puromycin (1 ug/mL) in RPMI-1640 medium with 10% FBS.
Luciferase assay—Reporter cells were treated with compounds at 0, 10, 20, 40, and […] for 24h in a 37° C.-CO2 incubator with or without chenodeoxycholic acid (CDCA) for FXR reporter cells or GW3965 for LXR reporter cells. Cells were lysed using luciferase lysis buffer after which luciferase buffer with luciferin was added to generate luminescence. Luminescence was recorded using a luminescence microplate reader.

ER-α = biological target: T2, ER-α (Homo sapiens, UniProt P03372); experiment: Hormone receptor signaling pathway selectivity: ER-α mediated transcriptional response; details: with E2
T2 sequence (P03372 1-595): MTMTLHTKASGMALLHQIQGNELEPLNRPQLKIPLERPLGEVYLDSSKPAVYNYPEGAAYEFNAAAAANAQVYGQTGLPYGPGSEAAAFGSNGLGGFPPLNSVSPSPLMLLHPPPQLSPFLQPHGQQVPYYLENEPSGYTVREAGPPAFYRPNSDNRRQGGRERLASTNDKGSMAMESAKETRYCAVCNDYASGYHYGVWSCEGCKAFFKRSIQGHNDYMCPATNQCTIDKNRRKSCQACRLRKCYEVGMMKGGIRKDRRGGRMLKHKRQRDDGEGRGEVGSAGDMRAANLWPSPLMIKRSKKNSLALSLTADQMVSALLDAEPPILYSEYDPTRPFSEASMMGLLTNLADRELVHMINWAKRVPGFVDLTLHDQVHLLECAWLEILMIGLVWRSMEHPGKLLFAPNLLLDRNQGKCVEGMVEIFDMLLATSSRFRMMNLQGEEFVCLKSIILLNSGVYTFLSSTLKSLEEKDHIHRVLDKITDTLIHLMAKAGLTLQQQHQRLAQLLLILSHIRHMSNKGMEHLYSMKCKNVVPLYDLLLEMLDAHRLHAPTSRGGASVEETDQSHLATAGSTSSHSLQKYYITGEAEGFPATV

ER-β = ER-β (Homo sapiens, UniProt Q92731); experiment: Hormone receptor signaling pathway selectivity: ER-β; details: with E2
ER-β, sequence (Q92731 whole entry, species assumed): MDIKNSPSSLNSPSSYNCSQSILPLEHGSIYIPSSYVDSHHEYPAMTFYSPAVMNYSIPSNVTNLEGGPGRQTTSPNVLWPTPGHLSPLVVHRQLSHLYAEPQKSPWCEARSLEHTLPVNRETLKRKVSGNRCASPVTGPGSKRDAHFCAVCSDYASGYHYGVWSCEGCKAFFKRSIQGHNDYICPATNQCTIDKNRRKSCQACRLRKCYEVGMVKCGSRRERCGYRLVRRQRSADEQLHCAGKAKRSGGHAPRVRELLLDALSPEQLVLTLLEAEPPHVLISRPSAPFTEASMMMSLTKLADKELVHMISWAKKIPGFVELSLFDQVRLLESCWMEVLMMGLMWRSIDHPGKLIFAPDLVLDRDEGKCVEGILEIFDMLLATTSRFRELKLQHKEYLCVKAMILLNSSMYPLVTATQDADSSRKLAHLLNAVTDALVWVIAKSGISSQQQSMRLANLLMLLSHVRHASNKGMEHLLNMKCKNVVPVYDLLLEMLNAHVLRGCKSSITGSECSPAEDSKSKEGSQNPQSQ

VDR = biological target: T3, VDR (Homo sapiens, UniProt P11473); experiment: Hormone receptor signaling pathway selectivity: VDRE (VDR); details: for IC50: with VD3; for EC50: biphasic model of action, read-out: EC50, stimulation of VDR activity
T3 sequence (P11473 1-427): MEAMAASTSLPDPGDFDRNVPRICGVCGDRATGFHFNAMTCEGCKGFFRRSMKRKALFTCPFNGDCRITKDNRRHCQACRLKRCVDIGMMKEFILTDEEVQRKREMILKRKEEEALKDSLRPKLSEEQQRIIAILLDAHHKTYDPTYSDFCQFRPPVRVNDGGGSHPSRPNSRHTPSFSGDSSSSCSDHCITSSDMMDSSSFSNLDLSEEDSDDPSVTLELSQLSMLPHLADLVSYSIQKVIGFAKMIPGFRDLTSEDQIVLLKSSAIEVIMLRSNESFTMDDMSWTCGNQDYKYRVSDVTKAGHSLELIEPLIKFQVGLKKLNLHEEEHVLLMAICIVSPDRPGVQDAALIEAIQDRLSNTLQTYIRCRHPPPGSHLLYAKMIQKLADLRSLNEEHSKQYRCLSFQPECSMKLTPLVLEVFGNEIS

AR = biological target: T4, AR (Homo sapiens, UniProt P10275); experiment: Hormone receptor signaling pathway selectivity: AR; details: with DHT
T4 sequence (P10275 1-920): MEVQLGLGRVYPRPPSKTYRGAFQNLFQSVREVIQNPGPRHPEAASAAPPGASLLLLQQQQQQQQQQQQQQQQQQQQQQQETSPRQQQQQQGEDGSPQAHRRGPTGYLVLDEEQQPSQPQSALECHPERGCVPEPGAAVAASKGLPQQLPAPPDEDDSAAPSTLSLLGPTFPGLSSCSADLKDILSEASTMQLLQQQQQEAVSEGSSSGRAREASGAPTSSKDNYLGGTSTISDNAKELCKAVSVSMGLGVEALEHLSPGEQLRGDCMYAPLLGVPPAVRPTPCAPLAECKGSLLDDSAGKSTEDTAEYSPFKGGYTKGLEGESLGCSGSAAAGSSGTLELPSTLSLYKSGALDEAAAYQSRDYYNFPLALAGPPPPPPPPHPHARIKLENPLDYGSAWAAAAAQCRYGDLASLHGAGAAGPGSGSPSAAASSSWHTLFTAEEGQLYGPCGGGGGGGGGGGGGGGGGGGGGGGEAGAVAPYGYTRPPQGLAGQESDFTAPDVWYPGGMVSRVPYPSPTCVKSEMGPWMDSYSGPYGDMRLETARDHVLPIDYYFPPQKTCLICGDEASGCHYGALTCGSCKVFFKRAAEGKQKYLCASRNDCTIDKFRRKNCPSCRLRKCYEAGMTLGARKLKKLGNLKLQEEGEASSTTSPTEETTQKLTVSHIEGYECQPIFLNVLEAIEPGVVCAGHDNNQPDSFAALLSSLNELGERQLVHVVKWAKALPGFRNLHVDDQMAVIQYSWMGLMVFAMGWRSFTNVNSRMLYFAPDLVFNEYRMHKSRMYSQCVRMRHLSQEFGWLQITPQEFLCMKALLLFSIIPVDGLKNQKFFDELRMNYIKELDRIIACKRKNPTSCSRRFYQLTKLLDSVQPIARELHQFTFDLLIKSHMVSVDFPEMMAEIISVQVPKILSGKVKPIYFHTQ

BACS = experiment: RT-qPCR for FXR target genes in HepG2 cells: BACS
Method: (§1) Real Time Quantitative PCR (RT-qPCR)—Real Time Quantitative PCR (RT-qPCR) for FXR target genes: RNA was extracted from NZZ compounds treated cells using the Roche High Pure RNA isolation kit. cDNA was then generated from RNA samples using Bio-rad iScript Advanced cDNA synthesis kit for RT-qPCR. qPCR was performed using primers as shown in the Table 1 and iTaq™ Universal SYBR® Green Supermix in CFX PCR machine (Bio-rad). Relative mRNA expression was calculated based on the change of the threshold cycle relative to the internal control, (3-actin, using a standard curve generated by purified PCR products.

[1] = test system: other hormone receptor signaling pathways; experiment: Selectivity for different hormone receptor signaling pathways (panel)
CYP7A1 = experiment: RT-qPCR for FXR target genes in HepG2 cells: CYP7A1; details: concentration of about 35 μM to 45
Method: as §1

PPARa = experiment: RT-qPCR for FXR target genes in HepG2 cells: PPARa; details: concentration of about 75 μM to 85
Method: as §1

[2] = read-out: ER-α with ligand E2 (inhibition IC50)
[3] = read-out: ER-β with ligand E2 (inhibition IC50)
[4] = read-out: VDRE with ligand VD3 (inhibition IC50)
[5] = read-out: AR with ligand DHT (inhibition IC50)
[6] = read-out: IC50, inhibition of VD3 action on VDR
[7] = read-out: IC50, inhibition of DHT action on AR

EC50 (VDR) [µM] | SMILES | EC50 (FXR) [µM] | IC50 (ER-α; [2]) [µM] | IC50 (ER-β; [3]) [µM] | IC50 (VDR; [4]) [µM] | IC50 (AR; [5]) [µM] | induction of FXR activity / FXR mediated transcriptional response (FXR) | BACS mRNA expression, fold lower than the CDCA induced BACS expression (BACS) | impact on other hormone receptor signaling pathways [1] | IC50 (ER-α; read-out: IC50, inhibition of E2 triggered ERα mediated transcriptional response) [µM] | IC50 (ER-β; read-out: IC50, inhibition of E2 action on ERβ) [µM] | IC50 (VDR; [6]) [µM] | IC50 (AR; [7]) [µM] | inhibition of CYP7A1, stronger than by compound (II) or by CDCA (CYP7A1) | PPARa mRNA expression, fold higher than that induced by compound (II) (PPARa)
 | C=C(CC[C@@H](C)[C@H]1CC[C@H]2C3=C(C(=O)C[C@]12C)[C@@]1(C)CCC(=O)[C@@H](C)[C@@H]1C[C@@H]3O)[C@H](C)C(=O)O [compound (III)] | > 80 | > 80 | > 80 | > 80 | > 80 |  |  |  |  |  |  |  |  | 
 | C=C(CC[C@@H](C)[C@H]1CC[C@H]2C3=C(CC[C@]12C)[C@@]1(C)CC[C@@H](O)C(C)(C)[C@@H]1C[C@@H]3O)[C@@H](C)C(=O)O [compound (XI)] | > 80 | > 80 | > 80 | > 80 | > 80 |  |  |  |  |  |  |  |  | 
 | C=C(CC[C@@H](C)[C@H]1CC[C@H]2C3=C(C(=O)[C@H](O)[C@]12C)[C@@]1(C)CC[C@@H](O)[C@@H](C)[C@@H]1CC3=O)[C@H](C)C(=O)O [compound (II)] | 40 | > 80 | > 80 | > 80 | > 80 | act as agonists; also recorded: induce/enhance FXR activity | about 2 fold | no impact |  |  |  |  |  | 
 | C=C(CC[C@@H](C(=O)O)[C@H]1C[C@H](O)[C@@]2(C)C3=CC[C@H]4C(C)(C)C(O)CC[C@]4(C)C3=CC[C@]12C)C(C)C (some centres unmarked) [compound (VI)] | > 80 | > 80 | > 80 | > 80 | > 80 |  |  |  |  |  |  |  |  | 
 | C=C(CC[C@@H](C)[C@H]1CC[C@H]2C3=C(C(=O)C[C@]12C)[C@@]1(C)CCC(=O)[C@@H](C)[C@@H]1C[C@@H]3O)[C@@H](C)C(=O)O [compound (IV)] | > 80 | 70 | > 80 | > 80 | > 80 |  |  |  | ~80 |  |  |  |  | 
 | C=C(CC[C@@H](C)[C@H]1CC[C@H]2C3=C(C(=O)C[C@]12C)[C@@]1(C)CCC(=O)[C@@H](C)[C@@H]1CC3=O)[C@H](C)C(=O)O [compound (VII)] | > 80 | > 80 |  |  |  |  |  |  |  | 40 | 20 | 40 |  | 
1.5 | C=C(CCC(C(=O)O)C1CCC2(C)C3=CCC4C(C)(CCC(O)C4(C)C)C3=CCC12C)C(C)C (centres unmarked) [compound (X)] | > 80 | > 80 | > 80 | > 80 | > 80 |  |  |  |  |  |  |  |  | 
 | C=C(CCC(C(=O)O)[C@H]1C[C@H](OC(C)=O)[C@@]2(C)C3=CC[C@H]4C(C)(C)[C@@H](O)CC[C@]4(C)C3=CC[C@]12C)C(C)C (some centres unmarked) [compound (IX)] | > 80 | > 80 | > 80 | > 80 | > 80 |  |  |  |  |  |  |  |  | 
1.5 | C=C(CCC(C(=O)O)C1CCC2(C)C3=C(CCC12C)C1(C)CCC(O)C(C)(C)C1CC3)C(C)C (centres unmarked) [compound (XII)] | > 80 | > 80 | > 80 | > 80 | > 80 |  |  |  |  |  |  |  |  | 
 | C=C(CC[C@@H](C)[C@H]1CC[C@H]2C3=C(C(=O)C[C@]12C)[C@@]1(C)CCC(=O)[C@@H](C)[C@@H]1CC3=O)[C@@H](C)C(=O)O [compound (VIII)] | > 80 | > 80 | > 80 |  |  |  |  |  |  |  | 25 | 25 |  | 
 | CC(C)=CCCC(C(=O)O)C1CC(O)C2(C)C3=CCC4C(C)(CCC(O)C4(C)C)C3=CCC12C (centres unmarked) [compound (V)] | > 80 | > 80 | > 80 | > 80 | > 80 |  |  |  |  |  |  |  |  | 
 | C=C(CC[C@@H](C)[C@H]1CC[C@H]2C3=C(C(=O)[C@H](O)[C@]12C)[C@@]1(C)CC[C@@H](O)[C@@H](C)[C@@H]1CC3=O)[C@@H](C)C(=O)O [compound (I)] | 25 | > 80 | > 80 | > 80 | > 80 | act as agonists; also recorded: induce/enhance FXR activity | about 2 fold | no impact |  |  |  |  | about 40% | about 2 fold
